Experiment: Human HepG2 cell viability assay in 384 well format
Assay type: toxicity, cell-based
Set-up: dose 125 nL, time 70.5 hour; concentration not given beside the values
Conditions: HepG2 cells, read-out: Inhibition

Row | SMILES | cytotoxicity at 70.5 h [%]
1 | CNc1ccc(CC2CCCN(C(=O)c3scnc3C)C2)nn1 (configuration not stated) | -5.63
2 | c1cnc(N2CCCC(c3n[nH]c4ncccc34)C2)nc1 (configuration not stated) | -4.04
3 | Cc1ncccc1Oc1nccnc1C1CCN(S(C)(=O)=O)CC1 | -5.66
4 | CCc1cc(=O)[nH]c(-c2ccc(NC(C)COC)nc2)n1 (configuration not stated) | 2.74
5 | O=C(Nc1ccc(-n2ccc(C(=O)O)n2)cc1)c1ccccc1 | -1.13
6 | CC(=O)NCC(=O)Nc1cc(C)n(-c2ccc(Cl)cc2Cl)n1 | -0.82
7 | O=C(O)c1ccn(-c2ccccc2NC(=O)c2ccccc2Cl)n1 | -3.53
8 | CC1CCN(CCNC(=O)c2sccc2C2CC2)CC1 | -5.27
9 | Cc1ccc(OCCN(C)C2CCOC2=O)cc1 (configuration not stated) | -5.65
10 | OCC1(NCc2cccc(-n3cccn3)c2)CCOCC1 | -1.42
11 | COCCN(CCOC)C(=O)c1cnn(C)c1C | -10.4
12 | COCCN(Cc1ccccc1)C(=O)c1cnn(C)c1C | -8.55
13 | O=C(O)c1ccn(-c2cccc(NC(=O)c3ccccc3Cl)c2)n1 | -6.97
14 | CCN(CC)C(CNC(=O)c1cccnc1-n1cncn1)c1ccsc1 (configuration not stated) | -7.63
15 | COCCOCC1CCN(C(=O)c2ccc3[nH]cnc3c2)C1 (configuration not stated) | 2.45
16 | Cc1ccccc1NC(=O)CCNC(=O)c1ccoc1 | 2.88
17 | CN(C)c1ncccc1CNC(=O)CCNc1ncccn1 | -9.01
18 | CCC(CNS(=O)(=O)c1cccc(C(=O)OC)c1)N1CCCC1 (configuration not stated) | -10.7
19 | CN(Cc1cnn(C)c1)C(=O)Nc1cccnc1-n1cccn1 | 14.6
20 | Cn1cc(S(=O)(=O)N(Cc2ccc(F)cc2F)C2CC2)cc1C(N)=O | -7.08
21 | CCCN(CC(F)(F)F)S(=O)(=O)c1cc(C(N)=O)n(C)c1 | -8.17
22 | COc1ncccc1CNCc1cnc(N2CCOCC2)nc1 | -9.23
23 | COC(=O)C1CCN(C(=O)Cn2ccc(-c3ccsc3)n2)CC1 | -3.32
24 | Cn1cc(NC(=O)N2CCCC2c2cccnc2)ccc1=O (configuration not stated) | -3.14

Row | SMILES | cytotoxicity at 70.5 h [%]
25 | COC(=O)C1CCN(C(=O)Cn2nc(C)nc2-c2ccccc2)CC1 | -2.98
26 | COC(=O)C1(NCC(=O)Nc2cc(C)ccc2OC)CCCCC1 | 2.15
27 | Cc1noc(OCC(=O)N2CCCCC2C)n1 (configuration not stated) | -3.19
28 | Cc1cnn(CCNCC(=O)N2CCN(c3ccccc3)CC2)c1 | 21.4
29 | NC(=O)c1cn[nH]c1NC(=O)c1ccc2c(c1)OCO2 | 1.1
30 | CCOCCC(=O)Nc1cccc(Cl)c1C(N)=O | -0.685
31 | Cn1cc(CC(=O)N2CCCC(c3cc(C(F)(F)F)[nH]n3)C2)cn1 (configuration not stated) | 15.9
32 | Cn1cnc(S(=O)(=O)N2CCCCc3ccccc32)c1 | 1.57
33 | CCc1ccc(CC)c(NCc2cnc(N3CCOCC3)nc2)c1 | -2.91
34 | Cc1cc(C)n(C2CN(Cc3nc4cc(Cl)ccc4n3C)C2)n1 | 4.28
35 | CCc1cnc(C(C)NC(=O)N2CCCN(CC(F)F)CC2)s1 (configuration not stated) | -4.42
36 | CC(C)(NCCCOc1ccc(C#N)cc1)c1nccs1 | -1.99
37 | CN(CCc1ccccn1)CCc1nccs1 | -8.22
38 | Cc1ccc(C(C)NC(=O)N2CCCN(CC(F)F)CC2)s1 (configuration not stated) | -2.75
39 | CCC(C)C(=O)N(CC(=O)OC)c1cccc(C)n1 (configuration not stated) | 2.47
40 | CC(CNC(=O)NCc1ccoc1)N1CCc2sccc2C1 (configuration not stated) | 6.45
41 | CC(Cn1cccn1)NC(=O)CCc1nc(C(C)(C)C)no1 (configuration not stated) | -2.44
42 | Cc1nn(C)c2ncc(NC(=O)N3CCCCCC3)cc12 | -4.95
43 | Cc1noc(C)c1CN(C)C(=O)C1CCCc2ccccc21 (configuration not stated) | -0.492
44 | CC(C)c1nn(C)c(N(C)C)c1CNC1CCOc2ccccc21 (configuration not stated) | 7.29
45 | COc1cccc(-c2n[nH]cc2CNC2CCN(C(C)C)CC2)c1 | -0.27
46 | COc1cccc(-c2n[nH]cc2CNC2CCC(O)CC2)c1 (configuration not stated) | -15.9
47 | CC(C)c1nn(C)c(N(C)C)c1CNC1CCOc2c(F)cccc21 (configuration not stated) | -2
